Active and inactive are the calls of the source. The rule behind the calls is not given here.
What was measured:
[1] = target: Acetylcholinesterase (Electrophorus electricus, UniProt O42275); assay: Inhibition of electric eel AChE using acetylthiocholine iodide as substrate measured every minute for fifteen minutes by Ellman's method
[2] = target: Acetylcholinesterase (Electrophorus electricus) (UniProt O42275); assay: Inhibition of electric eel AChE at 200 uM using acetylthiocholine iodide as substrate measured every minute for fifteen minutes by Ellman's method
Sequence of Acetylcholinesterase (Electrophorus electricus) (O42275 24-633 limits assumed): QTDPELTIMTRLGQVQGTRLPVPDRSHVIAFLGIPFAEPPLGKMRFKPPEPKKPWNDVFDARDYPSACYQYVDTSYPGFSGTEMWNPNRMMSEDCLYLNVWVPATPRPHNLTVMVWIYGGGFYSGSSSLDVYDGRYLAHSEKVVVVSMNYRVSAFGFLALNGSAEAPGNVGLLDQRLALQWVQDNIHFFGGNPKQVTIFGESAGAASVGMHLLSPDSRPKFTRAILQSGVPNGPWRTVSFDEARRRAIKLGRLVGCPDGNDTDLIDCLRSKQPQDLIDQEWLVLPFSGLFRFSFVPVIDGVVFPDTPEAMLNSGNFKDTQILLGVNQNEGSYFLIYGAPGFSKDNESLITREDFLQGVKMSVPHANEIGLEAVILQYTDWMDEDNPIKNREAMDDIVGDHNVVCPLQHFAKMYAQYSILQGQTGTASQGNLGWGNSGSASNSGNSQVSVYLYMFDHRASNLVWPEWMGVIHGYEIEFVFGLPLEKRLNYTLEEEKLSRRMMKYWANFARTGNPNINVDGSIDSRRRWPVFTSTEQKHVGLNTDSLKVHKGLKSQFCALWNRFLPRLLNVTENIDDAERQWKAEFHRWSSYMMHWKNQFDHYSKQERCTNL

Sequence of Acetylcholinesterase (O42275 whole entry): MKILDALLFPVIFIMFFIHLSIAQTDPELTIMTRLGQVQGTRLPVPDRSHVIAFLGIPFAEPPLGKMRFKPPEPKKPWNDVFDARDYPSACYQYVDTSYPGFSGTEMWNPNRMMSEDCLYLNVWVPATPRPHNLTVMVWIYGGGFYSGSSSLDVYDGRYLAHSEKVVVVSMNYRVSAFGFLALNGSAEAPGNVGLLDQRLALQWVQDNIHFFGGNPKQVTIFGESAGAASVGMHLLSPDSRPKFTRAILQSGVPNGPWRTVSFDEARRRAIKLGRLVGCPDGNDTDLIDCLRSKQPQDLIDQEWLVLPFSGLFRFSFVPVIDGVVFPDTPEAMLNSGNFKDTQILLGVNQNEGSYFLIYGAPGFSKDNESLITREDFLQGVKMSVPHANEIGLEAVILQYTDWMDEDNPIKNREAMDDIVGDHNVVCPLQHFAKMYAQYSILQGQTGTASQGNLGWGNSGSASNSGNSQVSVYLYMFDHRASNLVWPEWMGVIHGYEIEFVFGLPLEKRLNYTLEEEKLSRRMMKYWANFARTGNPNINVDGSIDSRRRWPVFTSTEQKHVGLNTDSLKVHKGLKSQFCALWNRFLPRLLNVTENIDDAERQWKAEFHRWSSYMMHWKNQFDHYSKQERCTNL

Row | Structure (SMILES) | IC50 [1] | inhibition [2]
1 | CNc1ccc(COC)cc1-c1cc2c(cc1CO)OCO2 | 8.82 µM | 
2 | COc1cc([C@@H]2[C@H](O)CC=C3CCN(C)[C@H]32)cc(OC)c1OC |  | inactive
3 | CO[C@H]1C=C[C@@]2(c3ccc(O)cc3)CCN[C@H]2C1 |  | inactive

Source: ChEMBL document CHEMBL3992494, “Amaryllidaceae alkaloids with new framework types from Zephyranthes candida as potent acetylcholinesterase inhibitors” (Eur J Med Chem, 2017)
